Measurements reported in US10670605B2, “Cysteine reactive probes and uses thereof” (The Scripps Research Institute, priority 2015, dated 2020).

Tests used:
Assay in all cases: Competitive isoTOP-ABPP in situ (fragment-treated cells)
Assay type in all cases: cell-based
[1] = molecular target: T1, cysteines in MDA-MB-231 and Ramos cells (Homo sapiens, UniProt O15294); conditions: 200 μM, insitu
T1 sequence (O15294 1-1046): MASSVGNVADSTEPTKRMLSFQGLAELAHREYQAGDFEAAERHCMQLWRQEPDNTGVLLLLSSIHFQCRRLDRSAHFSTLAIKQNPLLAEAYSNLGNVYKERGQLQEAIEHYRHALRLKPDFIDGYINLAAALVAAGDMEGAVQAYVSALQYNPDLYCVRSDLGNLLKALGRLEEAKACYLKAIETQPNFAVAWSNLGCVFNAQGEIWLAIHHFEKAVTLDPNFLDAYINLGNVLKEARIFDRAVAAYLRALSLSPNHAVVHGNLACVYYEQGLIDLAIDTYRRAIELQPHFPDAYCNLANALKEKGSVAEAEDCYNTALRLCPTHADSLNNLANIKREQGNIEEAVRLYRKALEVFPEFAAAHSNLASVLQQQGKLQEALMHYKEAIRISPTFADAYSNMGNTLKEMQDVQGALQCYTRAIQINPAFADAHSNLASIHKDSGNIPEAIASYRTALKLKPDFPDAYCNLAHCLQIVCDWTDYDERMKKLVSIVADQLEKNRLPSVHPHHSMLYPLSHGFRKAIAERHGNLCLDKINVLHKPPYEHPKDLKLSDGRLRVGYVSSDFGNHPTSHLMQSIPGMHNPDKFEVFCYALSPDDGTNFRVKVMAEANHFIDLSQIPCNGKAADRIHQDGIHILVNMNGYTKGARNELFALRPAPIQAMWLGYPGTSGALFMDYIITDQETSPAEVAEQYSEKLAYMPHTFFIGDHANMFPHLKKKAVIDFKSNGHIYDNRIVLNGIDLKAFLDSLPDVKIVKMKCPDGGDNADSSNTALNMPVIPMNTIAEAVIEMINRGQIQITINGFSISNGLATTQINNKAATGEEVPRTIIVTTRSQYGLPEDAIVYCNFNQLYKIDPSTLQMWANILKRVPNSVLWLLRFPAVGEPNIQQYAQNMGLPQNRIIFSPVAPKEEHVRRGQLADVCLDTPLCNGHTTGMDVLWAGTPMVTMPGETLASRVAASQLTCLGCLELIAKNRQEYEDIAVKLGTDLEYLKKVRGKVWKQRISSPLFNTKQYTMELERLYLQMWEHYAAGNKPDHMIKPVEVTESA

[2] = molecular target: T2, cysteines in MDA-MB-231 and Ramos cells (Homo sapiens, UniProt P21980); conditions: 200 μM, insitu, 231
T2 sequence (P21980 1-687): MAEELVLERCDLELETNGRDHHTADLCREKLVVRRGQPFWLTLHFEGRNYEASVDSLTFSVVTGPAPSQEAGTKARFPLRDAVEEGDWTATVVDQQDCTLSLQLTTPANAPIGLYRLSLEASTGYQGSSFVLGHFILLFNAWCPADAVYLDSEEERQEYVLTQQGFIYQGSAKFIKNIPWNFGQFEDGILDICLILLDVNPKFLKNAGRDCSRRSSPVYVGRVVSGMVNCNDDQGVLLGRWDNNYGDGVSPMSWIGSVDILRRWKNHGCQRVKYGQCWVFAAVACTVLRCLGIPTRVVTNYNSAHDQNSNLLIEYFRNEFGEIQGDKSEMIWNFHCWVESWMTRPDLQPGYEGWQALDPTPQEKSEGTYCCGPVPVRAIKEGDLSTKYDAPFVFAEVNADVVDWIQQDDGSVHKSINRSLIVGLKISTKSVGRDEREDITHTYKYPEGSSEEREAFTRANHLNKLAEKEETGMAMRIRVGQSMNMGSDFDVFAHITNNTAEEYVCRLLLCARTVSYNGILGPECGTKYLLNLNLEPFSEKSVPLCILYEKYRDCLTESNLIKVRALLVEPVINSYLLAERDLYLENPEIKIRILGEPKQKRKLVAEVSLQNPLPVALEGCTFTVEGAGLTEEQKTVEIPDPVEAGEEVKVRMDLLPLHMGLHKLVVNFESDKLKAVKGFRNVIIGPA

[3] = molecular target: T3, cysteines in MDA-MB-231 and Ramos cells (Homo sapiens, UniProt P23919); conditions: 200 μM, insitu
T3 sequence (P23919 1-212): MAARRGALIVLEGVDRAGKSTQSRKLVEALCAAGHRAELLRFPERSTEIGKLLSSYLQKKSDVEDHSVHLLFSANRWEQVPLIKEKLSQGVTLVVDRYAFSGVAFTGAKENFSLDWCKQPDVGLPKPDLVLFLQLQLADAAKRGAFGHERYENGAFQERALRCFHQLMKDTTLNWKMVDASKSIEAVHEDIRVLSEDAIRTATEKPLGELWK

[4] = molecular target: cysteines in MDA-MB-231 and Ramos cells (Homo sapiens, UniProt P38606); conditions: 200 μM, insitu
[5] = molecular target: T4, cysteines in MDA-MB-231 and Ramos cells (Homo sapiens, UniProt Q9BTA9); conditions: 200 μM, insitu
T4 sequence (Q9BTA9 1-647): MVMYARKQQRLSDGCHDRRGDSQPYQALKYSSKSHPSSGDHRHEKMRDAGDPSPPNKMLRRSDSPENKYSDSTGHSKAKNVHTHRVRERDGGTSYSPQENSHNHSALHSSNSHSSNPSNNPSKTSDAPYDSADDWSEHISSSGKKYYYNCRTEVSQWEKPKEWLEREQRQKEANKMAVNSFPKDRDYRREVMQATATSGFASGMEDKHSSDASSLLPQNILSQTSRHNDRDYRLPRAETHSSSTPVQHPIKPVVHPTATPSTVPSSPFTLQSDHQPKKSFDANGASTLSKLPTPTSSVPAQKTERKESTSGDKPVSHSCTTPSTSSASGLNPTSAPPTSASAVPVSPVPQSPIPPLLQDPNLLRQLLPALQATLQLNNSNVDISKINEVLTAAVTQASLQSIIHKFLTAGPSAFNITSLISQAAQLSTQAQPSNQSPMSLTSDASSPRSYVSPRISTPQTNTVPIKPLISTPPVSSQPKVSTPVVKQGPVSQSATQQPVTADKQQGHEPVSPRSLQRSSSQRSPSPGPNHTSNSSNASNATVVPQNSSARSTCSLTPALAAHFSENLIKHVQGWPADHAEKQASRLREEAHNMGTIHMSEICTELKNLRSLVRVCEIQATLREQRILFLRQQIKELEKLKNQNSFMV

Sequence of cysteines in MDA-MB-231 and Ramos cells (Homo sapiens, UniProt P38606) (P38606 whole entry): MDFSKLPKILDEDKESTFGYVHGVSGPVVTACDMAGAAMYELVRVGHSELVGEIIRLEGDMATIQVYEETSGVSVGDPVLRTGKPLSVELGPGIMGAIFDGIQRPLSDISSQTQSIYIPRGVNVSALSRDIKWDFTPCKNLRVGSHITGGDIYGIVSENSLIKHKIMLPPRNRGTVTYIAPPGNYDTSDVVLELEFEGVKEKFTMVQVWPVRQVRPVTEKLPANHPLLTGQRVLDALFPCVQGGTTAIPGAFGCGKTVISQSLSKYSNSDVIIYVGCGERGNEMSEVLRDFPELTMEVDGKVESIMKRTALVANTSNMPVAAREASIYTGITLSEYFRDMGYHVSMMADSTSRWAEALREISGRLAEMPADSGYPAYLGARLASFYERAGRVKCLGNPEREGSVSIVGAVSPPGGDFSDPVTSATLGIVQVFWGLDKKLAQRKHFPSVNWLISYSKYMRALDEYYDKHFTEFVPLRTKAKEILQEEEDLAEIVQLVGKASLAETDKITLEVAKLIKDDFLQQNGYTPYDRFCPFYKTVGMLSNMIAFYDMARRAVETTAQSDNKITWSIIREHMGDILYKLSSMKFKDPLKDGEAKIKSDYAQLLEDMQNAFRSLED

SMILES	isoTOP-ABPP ratio O15294_C758 [1]; 231	isoTOP-ABPP ratio P21980_C277 [2]	isoTOP-ABPP ratio P38606_C138 [4]; 231	isoTOP-ABPP ratio Q9BTA9_C553 [5]; 231	isoTOP-ABPP ratio P23919_C163 [3]; 231	further results
O=C(CCl)NC12CC3CC(CC(C3)C1)C2 [compound 21]	1.1	0.7	20.0	2.8		isoTOP-ABPP ratio, cysteine P23919_C117 [3]; 231: 0.9
CC(C)CCOCCNC(=O)CCl [compound 27]	1.0	0.6	4.6		0.2	
COc1ccccc1OCCNC(=O)CCl [compound 28]	1.0	0.4			0.4	
O=C(CCl)N1CCN(CC(=O)N2CCOCC2)CC1 [compound 29]						isoTOP-ABPP ratio O15294_C620 ([1]; ramos): 2.6; isoTOP-ABPP ratio P23919_C117 ([3]; ramos): 1.6; isoTOP-ABPP ratio Q9BTA9_C553 ([5]; ramos): 1.1
C=CC(=O)N(Cc1cccnc1)c1cc(C(F)(F)F)cc(C(F)(F)F)c1 [compound 31]						isoTOP-ABPP ratio O15294_C620 [1]; 231: 1.1; isoTOP-ABPP ratio P23919_C163 ([3]; ramos): 1.0; isoTOP-ABPP ratio P38606_C138 ([4]; ramos): 1.7
C=CC(=O)Nc1cc(F)c(N2CCN(C(=O)OC(C)(C)C)CC2)c(F)c1 [compound 38]		1.4	2.1	1.1	5.7	isoTOP-ABPP ratio P23919_C117 [3]; 231: 4.4
Cc1ccc(C=C(C#N)C(=O)NCCN2CCOCC2)cc1 [compound 41]	0.9	0.6	0.8	1.0	0.2	isoTOP-ABPP ratio O15294_C620 [1]; 231: 1.0
CC1CCc2ccccc2N1C(=O)CCl (stereo not drawn) [compound 45]	2.9	1.1		19.1		
O=C(CCl)Nc1cccc2ncccc12 [compound 51]	1.1	1.0	10.6	1.2		
